Data: patent publication US20180110762A1, “Compositions Methods for Treating Chronic Kidney Disease” (Merck Sharp & Dohme Corp, priority 2015, published 2018)
pIC50: −log10 of the molar value.

Tests used:
human podocytes = test: Oris cell migration assay, PAN-induced podocyte motility, vitronectin coated plate; type: cell-based; settings: 48 h; for % migrated cells vs control cells: VN plate
Procedure: The effects of Compound A on podocyte motility were evaluated using Oris cell migration assay kit in 96-well plates (coated with either vitronectin or fibronectin). The Oris™ Cell Migration Assay is designed with a unique cell seeding stopper or biocompatible gel, detection mask, and stopper tool. These unique plate designs generate highly reproducible results using a microscope, digital imaging system. 7 to 10-day differentiated human podocytes (100 ul of 50,000 cells/ml) were seeded in each well of the ORIS plate. After sitting at room temperature for about 15 minutes, the plate was placed into 37° C. incubator and podocytes were incubated with complete podocyte medium for 24 h. Stoppers from each well (keeping stoppers in 4 wells which were served as time zero control) were carefully removed, medium discarded, and fresh (10% FBS) podocyte medium added to each well. Podocytes were pretreated with Compound A (10 uM to 0.01 nM) for 2 h prior to puromycin animonucleoside (PAN, 30 ug/ml or 15 ug/ml) treatment. Podocytes were then treated with PAN in the presence or absence of Compound A at different concentrations (ranging from 10 uM to 0.01 nM) in 10% FBS medium for 48 h. Podocytes were then fixed with 4% paraformaldehyde in PBS for 30 minutes (adding 50 ul to each well). After discarding the fixative, podocytes were stained with Hoechst 33342 (stock […] working concentration at 5 uM) for 30 min. Podocytes were then washed with PBS three times. Finally, after adding 100 ul of PBS to each well, plate was sealed with a black cover and kept at 4° C. until image analysis. Images of podocyte motility were captured using Acumen eX3 (manufacturer TTP Labtech Ltd. address: Melbourn Science Park, Melbourn, Hertfordshire SG8 6EE, United Kingdom).
Effect of Compound A (“A”) on human podocyte motility was examined using Oris cell migration assay in vitronectin (VN) coated-96-well plate.

[1] = test system: male obese ZSF1 rats (diabetic nephropathy model); test: ZSF1 rat study: renal fibrosis score (histology); type: in vivo; settings: for renal fibrosis score (expressed as 0-5): obese ZSF1 rats, week 28
Procedure: The effects of Compound A (“A”) on renal function, plasma triglycerides, plasma cholesterol, kidney collagen I, kidney collagen III, renal histology, glomerular filtration rate, fibrosis score, and mRNA gene expression (profibrotic genes and integrin β3) were evaluated in male obese ZSF1 rats (a hybrid F1 of Zucker diabetic fatty rat and spontaneously hypertensive heart failure rat; a diabetic nephropathy model) when administered as in-feed for 28 weeks. Sixty obese male ZSF1 rats were randomized to five groups: Obese control (n=12), Compound A 60 mpk (n=12), Compound A 200 mpk (n=12), Compound A 400 mpk (n=12), Enalapril 10 mpk (n=12); Eight lean male ZSF1 rats were used for normal control. Renal functional changes were monitored by blood and urine analysis following in-feed dosing for 28 weeks. Compound exposure was also monitored during the study.
Upon completion of the study, animals were euthanized and blood and organs (kidney, heart, aorta, eyes, and lumber vertebrae (LV1-LV5) and left femur) were collected for histology assessment (including EM for the kidneys) or DEXA scan (lumber vertebrae and left femur). Kidney tissues were fixed in 10% formalin and then paraffin embedded. Tissue sections were stained with hematoxylin and eosin (H&E), periodic acid-Schiff (PAS), and Masson's trichrome and evaluated under light microscope. The severity of histopathologic changes in renal tubules, interstitium, vasculature, and glomeruli were graded on a 1 to 5 scale corresponding to minimal, mild, moderate, marked, and severe as described previously. Sections from both kidneys were examined. Collagen deposition in the kidney was graded on a 1 to 5 scale corresponding to minimal, mild, moderate, marked, and severe, based on the blue stained area size and intensity.

COc1ccc([C@H](CC(=O)O)N2CCN(CCCc3ccc4c(n3)NCCC4)C2=O)cn1 [Compound A, 3-{2-Oxo-3-[3-(5,6,7,8-tetrahydro-[1,8]naphthyridin-2-yl)-propyl]imidazolidin-1-yl}-3 (S)-(6-methoxy-pyridin-3-yl)-propionic acid]
pIC50 (human podocytes; Homo sapiens, vitronectin coated plates, PAN 30 ug/ml, read-out: IC50, inhibition of puromycin-induced human podocyte motility): 8.00 | % migrated cells vs control cells (human podocytes; PAN 30 ug/ml + A 0.01 nM): 55.1% | % migrated cells vs control cells (human podocytes; PAN 30 ug/ml + A 0.0316 nM): 44.0% | % migrated cells vs control cells (human podocytes; PAN 30 ug/ml + A 0.1 nM): 43.0% | % migrated cells vs control cells (human podocytes; PAN 30 ug/ml + A 0.316 nM): 36.6% | % migrated cells vs control cells (human podocytes; PAN 30 ug/ml + A 1 nM): 42.1% | % migrated cells vs control cells (human podocytes; PAN 30 ug/ml + A 3.16 nM): 31.3% | % migrated cells vs control cells (human podocytes; PAN 30 ug/ml + A 10 nM): 28.6% | % migrated cells vs control cells (human podocytes; PAN 30 ug/ml + A 100 nM): 19.6% | % migrated cells vs control cells (human podocytes; PAN 30 ug/ml + A 1 uM): 16.1% | % migrated cells vs control cells (human podocytes; PAN 30 ug/ml + A 10 uM): 16.9% | effect on renal fibrosis score vs Obese Vehicle ([1]; 400 mpk at week 28): significantly decreased | markers of renal fibrosis ([1]; ZSF-1 rats vs untreated obese ZSF-1 rats (summary)): improvement in markers of renal fibrosis | renal fibrosis score (expressed as 0-5) ([1]; 200 mpk in-feed): 2.7 ± 0.1 | renal fibrosis score (expressed as 0-5) ([1]; 400 mpk in-feed): 2.2 ± 0.1
